The subject of assay [1] is Staphylococcus epidermidis 270. Nature of the assay: In vitro antibacterial activity, agar-dilution MIC. Format: cell-based.
In assay [2] the test system is Staphylococcus aureus S13E. Format: cell-based. The settings on record: agar dilution. The method, then: (§1) The formula 1 compounds have in vitro and in vivo activity against Gram-positive pathogenic bacteria. The MIC's were determined by standard agar-dilution assays.
Assay [3] has as its system Streptococcus pneumoniae Park I. Format: cell-based. The settings on record: agar dilution. The method, then: as §1
(In general: In agar dilution the substance is mixed into plates at graded concentrations.)

The test system of the next assay is Staphylococcus aureus. Nature of the assay: In vivo activity against experimentally-induced infection in mice (ED50). The following applies: mice infected with Staphylococcus aureus; subcutaneous doses 1 and 4 hours postinfection. The procedure: (§2) The formula 1 compounds have also shown in vivo antimicrobial activity against experimentally-induced infections in laboratory animals. When two doses of test compound were administered to mice experimentally infected with the test organism, the activity observed was measured as an ED50 value [effective dose in mg/kg to protect 50% of the test animals: see Warren Wick, et al., J. Bacteriol. 81, 233-235 (1961)]. ED50 values observed for illustrative compounds are given in Table III. | ^a mg/kg × 2; doses administered subcutaneously to mice 1 and 4 | hours postinfection

Another assay relates to Streptococcus pneumoniae. The description is as above. The settings on record: mice infected with Streptococcus pneumoniae; subcutaneous doses 1 and 4 hours postinfection. The procedure: as §2
In a further assay the test system is Streptococcus pyogenes. The description is as above. The following applies: mice infected with Streptococcus pyogenes; subcutaneous doses 1 and 4 hours postinfection. The procedure:
as §2

Assay [4] deals with Haemophilus influenzae C.L. Put plainly: In vitro antibacterial activity, agar-dilution MIC. Format: cell-based. The following applies: ampicillin-sensitive strain, highest level tested 128 mcg/mL. The method, then:
as §1

In assay [5] the test system is Haemophilus influenzae 76. Nature of the assay: In vitro antibacterial activity, agar-dilution MIC. In kind it is cell-based. The settings on record: Haemophilus influenzae 76, ampicillin-resistant strain, highest level tested 128 mcg/mL. The procedure: as §1
Assay [6] deals with Staphylococcus epidermidis 222. Nature of the assay: In vitro antibacterial activity, agar-dilution MIC. In kind it is cell-based. The procedure:
as §1

Assay [7] concerns Staphylococcus aureus X1.1. Put plainly: In vitro antibacterial activity, agar-dilution MIC. Format: cell-based. The procedure: as §1
In assay [8] the test system is Staphylococcus aureus V41. Put plainly: In vitro antibacterial activity, agar-dilution MIC. Format: cell-based. The following applies: Staphylococcus aureus V41, penicillin-resistant strain. The method, then: as §1
Assay [9] concerns Streptococcus Group D X66. Nature of the assay: In vitro antibacterial activity, agar-dilution MIC. Format: cell-based. The method, then: as §1
Assay [10] has as its system Staphylococcus aureus X400. Nature of the assay: In vitro antibacterial activity, agar-dilution MIC. Format: cell-based. The settings on record: Staphylococcus aureus X400, methicillin-resistant strain. The method, then: as §1
Assay [11] has as its system Streptococcus pyogenes C203. Nature of the assay: In vitro antibacterial activity, agar-dilution MIC. Format: cell-based. The method, then: as §1
For assay [12], the system named is Streptococcus Group D 2041. Put plainly: In vitro antibacterial activity, agar-dilution MIC. Format: cell-based. The method, then:
as §1

Assay [13] deals with Klebsiella pneumoniae X26. Nature of the assay: In vitro antibacterial activity, agar-dilution MIC. Format: cell-based. The following applies: highest level tested 128 mcg/mL. The method, then: as §1
The test system of a further assay is Escherichia coli EC14. Put plainly: In vitro antibacterial activity, agar-dilution MIC. The following applies: highest level tested 128 mcg/mL. Format: cell-based. The method, then:
as §1

In brackets after ≈: the same amount, converted by molar mass.

As to `CNC(CC(C)C)C(=O)NC1C(=O)NC(CC(N)=O)C(=O)NC2C(=O)NC3C(=O)NC(C(=O)NC(C(=O)O)c4cc(O)cc(O)c4-c4cc3ccc4O)C(OC3CC(C)(N)C(O)C(C)O3)c3ccc(cc3)Oc3cc2cc(c3OC2OC(CO)C(O)C(O)C2O)Oc2ccc(cc2Cl)C1O` (stereo not shown) [Compound 2a], the MIC in assay [1] is 1 µg/mL (≈ 0.707 µM); in assay [2] it was 0.5 µg/mL (≈ 0.353 µM); in [3] it was 1 µg/mL (≈ 0.707 µM); in [4], “-- (Not active at 128 mcg/mL, the highest level tested)”; in [5], “-- (Not active at 128 mcg/mL, the highest level tested)”; in assay [6] it was 1 µg/mL (≈ 0.707 µM). Further, the MIC in assay [7] came out at 0.5 µg/mL (≈ 0.353 µM); in assay [8], 1 µg/mL (≈ 0.707 µM); in assay [9], 1 µg/mL (≈ 0.707 µM); in [10] it was 1 µg/mL (≈ 0.707 µM); in [11] it was 0.5 µg/mL (≈ 0.353 µM); in assay [12], 4 µg/mL (≈ 2.83 µM). Moreover, the MIC entry is “-- (Not active at 128 mcg/mL, the highest level tested)” in assay [13] and “-- (Not active at 128 mcg/mL, the highest level tested)” with Escherichia coli EC14. For the same compound, the “ED50 Value” in the assay with Staphylococcus aureus turned out to be 2.97 mg/kg × 2; with Streptococcus pneumoniae, 2.04 mg/kg × 2; with Streptococcus pyogenes it was 3.54 mg/kg × 2.

Take `CN[C@H](CC(C)C)C(=O)N[C@H]1C(=O)N[C@@H](CC(N)=O)C(=O)N[C@H]2C(=O)N[C@H]3C(=O)N[C@H](C(=O)N[C@H](C(=O)O)c4cc(O)cc(O)c4-c4cc3ccc4O)[C@H](O[C@H]3C[C@](C)(N)[C@@H](O)[C@H](C)O3)c3ccc(c(Cl)c3)Oc3cc2cc(c3O[C@@H]2O[C@H](CO)[C@@H](O)[C@H](O)[C@H]2O)Oc2ccc(cc2Cl)[C@H]1O` [Compound 3a]: the MIC was 1 µg/mL (≈ 0.69 µM) in assay [1]; 0.25 µg/mL (≈ 0.173 µM) in assay [2]; 0.25 µg/mL (≈ 0.173 µM) in assay [3]; 64 µg/mL (≈ 44.2 µM) in assay [4]; “-- (Not active at 128 mcg/mL, the highest level tested)” in assay [5]; 0.5 µg/mL (≈ 0.345 µM) in [6]. Also, the MIC in assay [7] came out at 0.25 µg/mL (≈ 0.173 µM); in assay [8], 0.25 µg/mL (≈ 0.173 µM); in assay [9] it was 0.5 µg/mL (≈ 0.345 µM); in assay [10] it was 0.5 µg/mL (≈ 0.345 µM); in assay [11], 0.25 µg/mL (≈ 0.173 µM); in assay [12], 1 µg/mL (≈ 0.69 µM). In addition, the MIC result in assay [13] is given as “-- (Not active at 128 mcg/mL, the highest level tested)”; against Escherichia coli EC14, “-- (Not active at 128 mcg/mL, the highest level tested)”. The “ED50 Value” in the assay on Staphylococcus aureus is listed as 0.54 mg/kg × 2; in the assay with Streptococcus pneumoniae, 0.34 mg/kg × 2; in the assay with Streptococcus pyogenes it was 0.70 mg/kg × 2.

Consider `CN[C@H](CC(C)C)C(=O)N[C@H]1C(=O)N[C@@H](CC(N)=O)C(=O)N[C@H]2C(=O)N[C@H]3C(=O)N[C@H](C(=O)N[C@H](C(=O)O)c4cc(O)cc(O)c4-c4cc3ccc4O)[C@H](O[C@H]3C[C@](C)(N)[C@@H](O)[C@H](C)O3)c3ccc(cc3)Oc3cc2cc(c3O)Oc2ccc(cc2Cl)[C@H]1O` [Compound 2b], for which the MIC in assay [1] was 2 µg/mL (≈ 1.6 µM); in assay [2], 1 µg/mL (≈ 0.798 µM); in [3], 1 µg/mL (≈ 0.798 µM); in [4], “-- (Not active at 128 mcg/mL, the highest level tested)”; in [5] it was “-- (Not active at 128 mcg/mL, the highest level tested)”; in assay [6], 2 µg/mL (≈ 1.6 µM). For the same compound, the MIC in assay [7] was 1 µg/mL (≈ 0.798 µM); in assay [8], 1 µg/mL (≈ 0.798 µM); in assay [9], 1 µg/mL (≈ 0.798 µM); in [10], 1 µg/mL (≈ 0.798 µM); in assay [11] it was 1 µg/mL (≈ 0.798 µM); in assay [12], 4 µg/mL (≈ 3.19 µM). Also, the MIC result in [13] is “-- (Not active at 128 mcg/mL, the highest level tested)”; in the assay with Escherichia coli EC14, “-- (Not active at 128 mcg/mL, the highest level tested)”. Besides, the “ED50 Value” in the assay with Staphylococcus aureus stood at 3.06 mg/kg × 2; in the assay with Streptococcus pneumoniae it was 3.74 mg/kg × 2; with Streptococcus pyogenes it was 3.54 mg/kg × 2.

Turning to `CN[C@H](CC(C)C)C(=O)N[C@H]1C(=O)N[C@@H](CC(N)=O)C(=O)N[C@H]2C(=O)N[C@H]3C(=O)N[C@H](C(=O)N[C@H](C(=O)O)c4cc(O)cc(O)c4-c4cc3ccc4O)[C@H](O)c3ccc(cc3)Oc3cc2cc(c3O)Oc2ccc(cc2Cl)[C@H]1O` [Compound 2c], the MIC in assay [1] was 4 µg/mL (≈ 3.61 µM); in [2], 4 µg/mL (≈ 3.61 µM); in [3] it was 4 µg/mL (≈ 3.61 µM); in [4], “-- (Not active at 128 mcg/mL, the highest level tested)”; in assay [5] it was “-- (Not active at 128 mcg/mL, the highest level tested)”; in assay [6], 8 µg/mL (≈ 7.21 µM). Besides, the MIC in assay [7] came to 4 µg/mL (≈ 3.61 µM); in [8], 4 µg/mL (≈ 3.61 µM); in [9] it was 8 µg/mL (≈ 7.21 µM); in assay [10], 8 µg/mL (≈ 7.21 µM); in [11], 4 µg/mL (≈ 3.61 µM); in assay [12], 16 µg/mL (≈ 14.4 µM). The MIC entry in assay [13] is “-- (Not active at 128 mcg/mL, the highest level tested)”; with Escherichia coli EC14 it was “-- (Not active at 128 mcg/mL, the highest level tested)”.

Turning to `CN[C@H](CC(C)C)C(=O)N[C@H]1C(=O)N[C@@H](CC(N)=O)C(=O)N[C@H]2C(=O)N[C@H]3C(=O)N[C@H](C(=O)N[C@H](C(=O)O)c4cc(O)cc(O)c4-c4cc3ccc4O)[C@H](O[C@H]3C[C@](C)(N)[C@@H](O)[C@H](C)O3)c3ccc(c(Cl)c3)Oc3cc2cc(c3O)Oc2ccc(cc2Cl)[C@H]1O` [Compound 3b], the MIC in assay [1] was 0.5 µg/mL (≈ 0.388 µM); in assay [2], 0.125 µg/mL (≈ 0.0971 µM); in assay [3] it was 0.25 µg/mL (≈ 0.194 µM); in assay [4], 32 µg/mL (≈ 24.9 µM); in assay [5] it was 64 µg/mL (≈ 49.7 µM); in assay [6] it was 0.25 µg/mL (≈ 0.194 µM). For the same compound, the MIC in assay [7] worked out at 0.125 µg/mL (≈ 0.0971 µM); in [8] it was 0.25 µg/mL (≈ 0.194 µM); in assay [9], 0.5 µg/mL (≈ 0.388 µM); in [10] it was 0.5 µg/mL (≈ 0.388 µM); in [11] it was 0.25 µg/mL (≈ 0.194 µM); in [12], 1 µg/mL (≈ 0.777 µM). The MIC result in assay [13] is “-- (Not active at 128 mcg/mL, the highest level tested)”; against Escherichia coli EC14, “-- (Not active at 128 mcg/mL, the highest level tested)”. The “ED50 Value” in the assay on Staphylococcus aureus came to 0.50 mg/kg × 2; with Streptococcus pneumoniae it was 0.30 mg/kg × 2; with Streptococcus pyogenes it was 0.40 mg/kg × 2.

The values above are taken from patent publication US6111067A, “A-82846-type glycopeptide antibiotics” (Eli Lilly and Company, priority 1993, dated 2000).
